Data on two molecules can be found in patent US10566550B2, “Formulation containing an organic semiconductor and a metal complex” (Merck Patent GmbH, priority 2015, dated 2020).

In brackets after ≈: the same amount, converted by molar mass.

The nature of the series: Solubility of the materials in various solvents at 20° C. The conditions noted are these: organic solvent or mixture, thermodynamic from solid. It counts as physicochemical. As to the method:
For the purposes of this application, the solubility of a material in a solvent is taken to mean the highest material-to-solvent ratio in which the solution at room temperature (at about 20° C.), is clear and stays clear for at least several hours, preferably for at least 5 hours.
The solubility of a material in a solvent is the highest material-to-solvent ratio in which the solution at 20° C. is clear and stays clear for several hours.
The solubility (g/l) is determined according to the following method:
(1) A known amount of the solvent (for example 100 mL) is put in a container
(2) A defined amount of the material is added and the mixture is stirred with a magnetic stirring bar;

[1] abbreviates: LM8 Toluene:Hexafluorobenzene (7:3).

In the case of `O=C([O][Bi]([O]C(=O)c1ccc(F)c(F)c1F)[O]C(=O)c1ccc(F)c(F)c1F)c1ccc(F)c(F)c1F` [M1], the solubility is under 7.5 mg/mL (LM1 Anisole:Xylene (2:1)); under 7.5 mg/mL (LM2 Anisole); under 7.5 mg/mL (LM3 Xylene); under 7.5 mg/mL (LM4 Chlorobenzene); over 100 mg/mL (LM5 THF); over 30 mg/mL (LM6 Toluene:THF (9:1)). Moreover, the solubility is, setting by setting: (LM7 Hexafluorobenzene) 15 to 20 mg/mL; under setting [1], 15 mg/mL; (LM9 Meta-difluorobenzene) under 7.5 mg/mL; (LM10 Fluorobenzene) under 7.5 mg/mL; (LM11 Acetonitrile) under 10 mg/mL; (LM12 Benzonitrile) over 20 mg/mL. Also, the solubility was over 20 mg/mL (LM13 Acetone); over 40 mg/mL (LM14 DMF); 15 mg/mL (LM15 Toluene:DMF (8:2)); over 20 mg/mL (LM16 DMSO); over 20 mg/mL (LM17 Methanol); 20 mg/mL (LM18 Toluene:Methanol (8:2)). Besides, the solubility was over 20 mg/mL (LM19 EGDME) and under 7.5 mg/mL (LM20 Toluene).
As for `CC1(C)c2ccccc2-c2ccc(N(c3ccc4c(c3)C3(c5ccccc5-c5ccccc53)c3ccccc3-4)c3ccccc3-c3ccccc3)cc21` [OS6], the solubility (LM1 Anisole:Xylene (2:1)) is over 50 mg/mL; the solubility (LM2 Anisole) is 100 mg/mL (≈ 148 mM); the solubility (LM3 Xylene) stood at 40 mg/mL (≈ 59.2 mM); the solubility (LM5 THF) is over 40 mg/mL; the solubility (LM6 Toluene:THF (9:1)) was over 50 mg/mL; the solubility under setting [1] turned out to be 30 mg/mL (≈ 44.4 mM). Besides, the solubility is, setting by setting: (LM14 DMF) 10 mg/mL (≈ 14.8 mM); (LM15 Toluene:DMF (8:2)) 25 mg/mL (≈ 37 mM); (LM16 DMSO) 10 mg/mL (≈ 14.8 mM); (LM18 Toluene:Methanol (8:2)) 30 mg/mL (≈ 44.4 mM); (LM20 Toluene) 60 mg/mL (≈ 88.8 mM).

For orientation: solubility means how much of the substance goes into solution per volume.
